Earlier results on one compound are cited in US12396967B2 (Pulmonem Inc., priority 2020, dated 2025).

The data set has as its system human bronchial epithelial cells stimulated with lipopolysaccharide.

Regarding `Nc1ccc(S(=O)(=O)c2ccc(N)cc2)cc1` [Dapsone, 4,4′-diamino-diphenyl sulfone], the IL-8 secretion result was “inhibits IL-8 secretion”.
